Laboratory results: the NIST ThermoML archive (doi:10.1016/j.fluid.2005.01.002)
Several values for one entry are separate records, joined by “and”; a condition that tells them apart may be missing. Equal values may be shown once. ± gives the expanded uncertainty stated by the source.

assay: not given; conditions: 353.15 K; Liquid

| Compound | vapor or sublimation pressure |
| --- | --- |
| C1CCOC1 [tetrahydrofuran] | 155.92 ± 1 kPa and 157.86 ± 1 kPa |
| O [water] | 47.37 ± 0.58 kPa and 47.82 ± 0.58 kPa |
| CO [methanol] | 182.61 ± 1.2 kPa |
| CC(C)=O [acetone] | 215.16 ± 1.4 kPa and 215.04 ± 1.4 kPa and 216.82 ± 5.5 kPa |
| CCO [ethanol] | 109.08 ± 0.72 kPa |
| CC(C)O [propan-2-ol] | 92.26 ± 0.62 kPa and 91.99 ± 0.61 kPa |

assay: activity coefficient (dimensionless); of the first substance listed, at infinite dilution; xn = mol fraction of the nth substance listed; conditions: 353.15 K; 101.33 kPa; Liquid; Static method; x1 = 0

| Compound | activity coefficient |
| --- | --- |
| CC(C)=O [acetone] + COP(=O)([O-])OC.Cn1cc[n+](C)c1 | 0.98 ± 0.01 |
| O [water] + CCCC[n+]1ccn(C)c1.O=S(=O)([N-]S(=O)(=O)C(F)(F)F)C(F)(F)F | 2.27 ± 0.03 |
| C1CCOC1 [tetrahydrofuran] + COP(=O)([O-])OC.Cn1cc[n+](C)c1 | 3.21 ± 0.05 |
| CO [methanol] + COP(=O)([O-])OC.Cn1cc[n+](C)c1 | 0.029 ± 0.01 |
| C1CCOC1 [tetrahydrofuran] + CCn1cc[n+](C)c1.O=S(=O)([N-]S(=O)(=O)C(F)(F)F)C(F)(F)F | 0.8 ± 0.01 |
| O [water] + CCn1cc[n+](C)c1.O=S(=O)([N-]S(=O)(=O)C(F)(F)F)C(F)(F)F | 2.32 ± 0.04 |
| O [water] + COP(=O)([O-])OC.Cn1cc[n+](C)c1 | 0.028 ± 0.01 |
| CC(C)=O [acetone] + CCn1cc[n+](C)c1.O=S(=O)([N-]S(=O)(=O)C(F)(F)F)C(F)(F)F | 0.438 ± 0.01 |
| CCO [ethanol] + COP(=O)([O-])OC.Cn1cc[n+](C)c1 | 0.115 ± 0.01 |
| CC(C)O [propan-2-ol] + CCn1cc[n+](C)c1.O=S(=O)([N-]S(=O)(=O)C(F)(F)F)C(F)(F)F | 1.42 ± 0.02 |
| CC(C)=O [acetone] + CCCC[n+]1ccn(C)c1.O=S(=O)([N-]S(=O)(=O)C(F)(F)F)C(F)(F)F | 0.406 ± 0.01 |
| CC(C)O [propan-2-ol] + CCCC[n+]1ccn(C)c1.O=S(=O)([N-]S(=O)(=O)C(F)(F)F)C(F)(F)F | 1.1 ± 0.01 |
